In data set [1] the target is T1, P2X2/P2X3 heterotrimeric receptor (Homo sapiens, UniProt P56373+Q9UBL9).
T1 sequence (Q9UBL9 whole entry): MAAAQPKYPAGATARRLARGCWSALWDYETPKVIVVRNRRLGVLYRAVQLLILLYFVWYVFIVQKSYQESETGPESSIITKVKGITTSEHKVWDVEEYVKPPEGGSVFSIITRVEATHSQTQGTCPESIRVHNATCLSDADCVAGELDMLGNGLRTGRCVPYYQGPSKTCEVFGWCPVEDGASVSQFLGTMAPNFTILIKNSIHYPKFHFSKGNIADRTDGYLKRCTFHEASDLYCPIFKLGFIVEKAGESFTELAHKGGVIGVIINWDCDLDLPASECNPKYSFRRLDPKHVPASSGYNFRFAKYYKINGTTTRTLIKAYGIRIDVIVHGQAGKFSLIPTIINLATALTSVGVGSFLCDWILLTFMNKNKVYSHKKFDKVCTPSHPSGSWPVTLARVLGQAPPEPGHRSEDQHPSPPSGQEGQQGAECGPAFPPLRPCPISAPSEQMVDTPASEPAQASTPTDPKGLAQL
T1 sequence (P56373 whole entry): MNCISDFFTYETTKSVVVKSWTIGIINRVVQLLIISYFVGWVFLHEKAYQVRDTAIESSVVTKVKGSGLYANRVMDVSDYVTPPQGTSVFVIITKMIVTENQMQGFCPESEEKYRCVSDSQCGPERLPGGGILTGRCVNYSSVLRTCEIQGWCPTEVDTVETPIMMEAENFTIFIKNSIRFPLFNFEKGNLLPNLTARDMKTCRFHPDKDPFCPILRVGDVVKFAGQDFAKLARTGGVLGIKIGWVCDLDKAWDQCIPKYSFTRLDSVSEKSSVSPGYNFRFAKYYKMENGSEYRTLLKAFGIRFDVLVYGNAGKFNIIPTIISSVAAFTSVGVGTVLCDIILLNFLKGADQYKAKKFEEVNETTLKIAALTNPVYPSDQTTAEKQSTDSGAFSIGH
The experiment in a line: Antagonist activity at human P2X2/3 receptor expressed in 1321n1c cells by FLIPR. The format is functional, cell-based.

Data set [2] concerns the target T2, P2X purinoceptor 3 (Rattus norvegicus, UniProt P49654).
T2 sequence (P49654 whole entry): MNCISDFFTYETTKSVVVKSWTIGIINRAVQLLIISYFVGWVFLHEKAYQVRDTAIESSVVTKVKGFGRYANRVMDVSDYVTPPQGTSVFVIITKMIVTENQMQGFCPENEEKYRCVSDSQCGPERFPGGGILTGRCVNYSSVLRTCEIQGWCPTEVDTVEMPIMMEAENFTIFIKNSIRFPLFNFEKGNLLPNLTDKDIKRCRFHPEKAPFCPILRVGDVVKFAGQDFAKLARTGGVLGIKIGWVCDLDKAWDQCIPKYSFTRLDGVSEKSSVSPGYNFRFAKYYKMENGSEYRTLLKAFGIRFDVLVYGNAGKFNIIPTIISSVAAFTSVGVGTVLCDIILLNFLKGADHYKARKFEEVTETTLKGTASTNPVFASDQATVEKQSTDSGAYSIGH
The experiment in a line: Antagonist activity at rat P2X3 receptor expressed in CHO cells by FLIPR. In kind it is functional, cell-based.

A short description of data set [3]: Half life in rat at 2 mg/kg, po administered as single dose. The format is ADME, organism-based. Set-up: dose 2 mg/kg, route oral. The settings on record: in vivo.
Data set [4] is described as follows: Tmax in rat at 2 mg/kg, iv administered as single dose. The format is ADME, organism-based. Set-up: dose 2 mg/kg, route intravenous. As to conditions: in vivo.
Data set [5] deals with Rattus norvegicus. The data set is described as follows: Clearance in rat at 2 mg/kg, iv administered as single dose. The format is ADME, organism-based. Set-up: dose 2 mg/kg, route intravenous. As to conditions: in vivo.
Data set [6] can be described thus: Half life in rat at 2 mg/kg, iv administered as single dose. As to conditions: in vivo. The format is ADME, organism-based. Also on record: dose 2 mg/kg, route intravenous.
The nature of data set [7]: Oral bioavailability in dog. In kind it is ADME, organism-based, Canis lupus familiaris. The settings on record: in vivo.
Data set [8] can be described thus: AUC in rat at 2 mg/kg, po administered as single dose. The format is ADME, organism-based. Set-up: dose 2 mg/kg, route oral. As to conditions: plasma.
Data set [9] can be described thus: Half life in dog. The format is ADME, organism-based, Canis lupus familiaris. The settings on record: in vivo.
For data set [10], the species on record is Canis familiaris. The data set is described as follows: Clearance in dog. The format is ADME, organism-based, Canis lupus familiaris. As to conditions: in vivo.
Data set [11] can be described thus: AUC in rat at 2 mg/kg, iv administered as single dose. In kind it is ADME, organism-based. Set-up: dose 2 mg/kg, route intravenous. The settings on record: plasma.
Data set [12] can be described thus: Oral bioavailability in rat at 2 mg/kg administered as single dose. The format is ADME, organism-based. The settings on record: in vivo.
Data set [13] in a line: Cmax in rat at 2 mg/kg, po administered as single dose. As to conditions: in vivo. The format is ADME, organism-based. Set-up: dose 2 mg/kg, route oral.
Data set [14] in a line: Cmax in rat at 2 mg/kg, iv administered as single dose. The format is ADME, organism-based. Set-up: dose 2 mg/kg, route intravenous. As to conditions: in vivo.
Data set [15] is described as follows: Tmax in rat at 2 mg/kg, po administered as single dose. The format is ADME, organism-based. Set-up: dose 2 mg/kg, route oral. The settings on record: in vivo.
In data set [16] the target is P2X purinoceptor 5 (Homo sapiens, UniProt Q93086). The experiment in a line: Antagonist activity at P2X5 receptor up to 10 uM. The format is functional.
P2X purinoceptor 5, sequence (Q93086 whole entry): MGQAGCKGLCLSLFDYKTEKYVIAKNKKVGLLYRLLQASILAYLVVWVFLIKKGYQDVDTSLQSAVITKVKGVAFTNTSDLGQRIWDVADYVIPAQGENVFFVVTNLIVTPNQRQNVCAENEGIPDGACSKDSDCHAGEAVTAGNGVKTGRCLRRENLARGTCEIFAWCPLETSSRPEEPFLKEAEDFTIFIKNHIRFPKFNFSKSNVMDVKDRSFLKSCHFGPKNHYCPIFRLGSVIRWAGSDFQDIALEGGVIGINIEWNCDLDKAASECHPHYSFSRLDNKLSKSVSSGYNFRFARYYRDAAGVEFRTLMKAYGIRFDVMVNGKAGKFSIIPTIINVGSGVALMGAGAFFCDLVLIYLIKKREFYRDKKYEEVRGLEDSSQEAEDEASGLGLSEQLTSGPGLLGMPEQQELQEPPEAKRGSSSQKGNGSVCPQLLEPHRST
Data set [17] can be described thus: Apparent permeability from apical to basolateral side of human Caco-2 cells. In kind it is ADME, cell-based. A general note: Passage across Caco-2 layers is used to estimate intestinal permeability.

The text below walks through data of ChEMBL document CHEMBL1153300, “Identification and SAR of novel diaminopyrimidines. Part 2: The discovery of RO-51, a potent and selective, dual P2X(3)/P2X(2/3) antagonist for the treatment of pain” (Bioorg Med Chem Lett, 2009).

Bounds are passed on as bounds.

For `COc1cc(C(C)C)c(Oc2cnc(NCCO)nc2N)cc1I`, in [1] (read-out: pIC50 (converted)), the IC50 is 15.8 nM.
Take `COc1cc(C(C)C)c(Oc2cnc(NCCN3CCOCC3)nc2N)cc1I`: the IC50 is 158 nM in data set [2] (read-out: pIC50 (converted)) and 398 nM in [1] (read-out: pIC50 (converted)).
For `COc1cc(C(C)C)c(Oc2cnc(NC(C)(C)CO)nc2N)cc1I`, the IC50 in data set [1] (read-out: pIC50 (converted)) was 794 nM.
Regarding `COc1cc(C(C)C)c(Oc2cnc(N)nc2N)cc1I`, the half-life (usually the time in which the quantity being followed falls by half) in data set [3] is 2.09 h; in [6] it was 0.94 h; in [9] it was 1.5 h. Besides, the IC50 in data set [2] (read-out: IC50) was 13 nM; in data set [1] (read-out: IC50) it was 25 nM; in data set [1] (read-out: pIC50 (converted)), 39.8 nM. The Tmax (commonly the time at which the peak concentration occurs) stood at 0.083 h in data set [4] and 1.33 h in data set [15]. In addition, the clearance (in general, a measure of how efficiently the substance is removed, as volume per time) in data set [5] came out at 52.8 mL/min/kg; in [10] it was 13 mL/min/kg. The bioavailability (usually the share of a dose that reaches the circulation, judged against a reference dose that is usually intravenous) in [7] amounted to 72%; in data set [12], 39%. The AUC (usually the area under the concentration-time curve, a measure of exposure) in data set [8] is 240 ng·h/mL; in data set [11], 628 ng·h/mL. Moreover, the highest concentration (Cmax) (commonly the peak of the concentration-time curve) in data set [13] is 64.3 ng/mL; in data set [14], 589 ng/mL.
With `COc1cc(C(C)C)c(Oc2cnc(NC(CO)CO)nc2N)cc1I`, the half-life in [3] is 1.52 h; in data set [6], 1.07 h; in data set [9], 3.88 h. In data set [16], this compound yielded an IC50 of more than 10000 nM. The time to peak (Tmax) in data set [4] was determined as 0.167 h; in data set [15], 0.833 h. Further, the clearance in [5] was 71.9 mL/min/kg; in data set [10] it was 4.65 mL/min/kg. In addition, the values for the bioavailability in data set [7] and in data set [12] were 79% and 48%, respectively. Also, the area under the curve (AUC) turned out to be 237 ng·h/mL in data set [8] and 495 ng·h/mL in data set [11]. Moreover, the Cmax in data set [13] was determined as 104 ng/mL; in [14], 554 ng/mL. Also, the Papp A→B (commonly the apparent permeability from the apical to the basolateral side of a cell layer) in [17] amounted to 9.43 ×10⁻⁶ cm/s.
With `COc1cc(C(C)C)c(Oc2cnc(NCCN(C)C)nc2N)cc1I`, the IC50 in data set [2] (read-out: pIC50 (converted)) is 158 nM; in [1] (read-out: pIC50 (converted)), 251 nM.
The like results for `COc1cc(C(C)C)c(Oc2cnc(N(C)C)nc2N)cc1I` were, in that order, more than 10000 nM and more than 10000 nM.
The like results for `COc1cc(C(C)C)c(Oc2cnc(NC3CCN(S(C)(=O)=O)CC3)nc2N)cc1I` were, in that order, 100 nM and 316 nM.
The like results for `COc1cc(C(C)C)c(Oc2cnc(NCC(F)(F)F)nc2N)cc1I` were, in that order, 79.4 nM and 200 nM.
